# Tests used:
# Test in all cases: cell-based
# Parameters in all cases: functional GPCR antagonist screen (Eurofins Cerep), percent inhibition of control agonist response
# Conditions in all cases: antagonist effect, against control agonist; read-out: % Inhibition of Control Agonist Response, Mean
# PTH1 (h) = target: T1, PTH1 (h) (Homo sapiens, UniProt Q03431)
# T1 construct: gene PTH1R
# LPA1(h) = target: T2, LPA1(h) (Homo sapiens, UniProt Q92633)
# T2 construct: gene LPAR1
# MC5 (h) = target: T3, MC5 (h) (Homo sapiens, UniProt P33032)
# T3 construct: gene MC5R
# T3 sequence (P33032 whole entry): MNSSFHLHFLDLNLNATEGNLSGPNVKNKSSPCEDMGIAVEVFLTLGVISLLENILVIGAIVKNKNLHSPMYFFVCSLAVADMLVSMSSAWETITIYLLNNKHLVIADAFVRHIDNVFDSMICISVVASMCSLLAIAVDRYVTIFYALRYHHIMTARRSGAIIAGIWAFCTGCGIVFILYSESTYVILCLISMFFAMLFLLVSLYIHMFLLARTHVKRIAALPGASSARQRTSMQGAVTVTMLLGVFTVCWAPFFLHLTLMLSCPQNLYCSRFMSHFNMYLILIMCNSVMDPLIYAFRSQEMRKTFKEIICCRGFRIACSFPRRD
# S1P3 (h) = target: T4, S1P3 (h) (Homo sapiens, UniProt Q99500)
# T4 construct: gene S1PR3
# PAR2 (h) = target: T5, PAR2 (h) (Homo sapiens, UniProt P55085)
# T5 construct: gene F2RL1
# IP (PGI2) (h) = target: T6, IP (PGI2) (h) (Homo sapiens, UniProt P43119)
# T6 construct: gene PTGIR
# T6 sequence (P43119 whole entry): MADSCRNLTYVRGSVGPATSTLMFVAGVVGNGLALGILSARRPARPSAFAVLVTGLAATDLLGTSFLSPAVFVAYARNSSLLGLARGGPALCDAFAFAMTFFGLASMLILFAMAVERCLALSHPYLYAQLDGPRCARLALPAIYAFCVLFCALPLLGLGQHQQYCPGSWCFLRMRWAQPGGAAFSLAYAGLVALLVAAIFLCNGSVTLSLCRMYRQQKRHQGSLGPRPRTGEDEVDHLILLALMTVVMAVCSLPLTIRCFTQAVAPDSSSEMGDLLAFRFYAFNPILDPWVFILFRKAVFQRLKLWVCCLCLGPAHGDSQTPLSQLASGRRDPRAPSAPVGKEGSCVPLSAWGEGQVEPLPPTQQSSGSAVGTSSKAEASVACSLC
# S1P5 (h) = target: T7, S1P5 (h) (Homo sapiens, UniProt Q9H228)
# T7 construct: gene S1PR5
# T7 sequence (Q9H228 whole entry): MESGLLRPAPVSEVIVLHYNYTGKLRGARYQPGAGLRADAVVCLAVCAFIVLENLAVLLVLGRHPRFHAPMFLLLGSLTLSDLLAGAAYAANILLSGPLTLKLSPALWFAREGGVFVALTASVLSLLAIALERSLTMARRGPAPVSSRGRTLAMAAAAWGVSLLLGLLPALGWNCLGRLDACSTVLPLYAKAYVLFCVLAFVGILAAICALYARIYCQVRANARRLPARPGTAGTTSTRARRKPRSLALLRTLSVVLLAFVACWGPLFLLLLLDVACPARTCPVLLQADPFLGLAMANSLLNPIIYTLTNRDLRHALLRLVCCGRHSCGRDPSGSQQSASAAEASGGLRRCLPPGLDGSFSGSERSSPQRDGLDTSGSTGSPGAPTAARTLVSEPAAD
# M4 (h) = target: T8, M4 (h) (Homo sapiens, UniProt P08173)
# T8 construct: gene CHRM4
# NK1 (h) = target: T9, NK1 (h) (Homo sapiens, UniProt P25103)
# T9 construct: gene TACR1
# T9 sequence (P25103 whole entry): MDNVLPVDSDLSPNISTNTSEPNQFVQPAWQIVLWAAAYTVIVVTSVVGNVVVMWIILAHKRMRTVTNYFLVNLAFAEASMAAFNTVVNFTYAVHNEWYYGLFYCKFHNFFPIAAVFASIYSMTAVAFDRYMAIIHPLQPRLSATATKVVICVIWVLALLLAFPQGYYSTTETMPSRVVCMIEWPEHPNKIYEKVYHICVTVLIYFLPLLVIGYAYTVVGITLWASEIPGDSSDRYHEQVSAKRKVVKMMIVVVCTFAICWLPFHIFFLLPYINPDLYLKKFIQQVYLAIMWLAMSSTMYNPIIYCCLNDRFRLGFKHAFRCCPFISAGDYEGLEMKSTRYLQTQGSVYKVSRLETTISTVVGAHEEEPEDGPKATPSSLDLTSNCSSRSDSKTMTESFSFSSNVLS
# EP1 (h) = target: T10, EP1 (h) (Homo sapiens, UniProt P34995)
# T10 construct: gene PTGER1
# T10 sequence (P34995 whole entry): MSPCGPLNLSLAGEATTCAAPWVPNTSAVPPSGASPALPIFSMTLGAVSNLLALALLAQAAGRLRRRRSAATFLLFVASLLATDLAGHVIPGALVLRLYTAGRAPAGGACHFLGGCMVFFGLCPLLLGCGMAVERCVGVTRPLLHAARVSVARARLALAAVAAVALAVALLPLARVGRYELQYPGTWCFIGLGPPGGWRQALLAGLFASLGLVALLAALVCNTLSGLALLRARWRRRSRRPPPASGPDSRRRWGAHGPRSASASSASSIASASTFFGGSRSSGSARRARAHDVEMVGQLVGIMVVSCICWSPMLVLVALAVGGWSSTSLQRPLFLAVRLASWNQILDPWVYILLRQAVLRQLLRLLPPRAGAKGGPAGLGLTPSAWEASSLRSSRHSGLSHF
# NMU2 (h) = target: T11, NMU2 (h) (Homo sapiens, UniProt Q9GZQ4)
# T11 construct: gene NMUR2
# T11 sequence (Q9GZQ4 whole entry): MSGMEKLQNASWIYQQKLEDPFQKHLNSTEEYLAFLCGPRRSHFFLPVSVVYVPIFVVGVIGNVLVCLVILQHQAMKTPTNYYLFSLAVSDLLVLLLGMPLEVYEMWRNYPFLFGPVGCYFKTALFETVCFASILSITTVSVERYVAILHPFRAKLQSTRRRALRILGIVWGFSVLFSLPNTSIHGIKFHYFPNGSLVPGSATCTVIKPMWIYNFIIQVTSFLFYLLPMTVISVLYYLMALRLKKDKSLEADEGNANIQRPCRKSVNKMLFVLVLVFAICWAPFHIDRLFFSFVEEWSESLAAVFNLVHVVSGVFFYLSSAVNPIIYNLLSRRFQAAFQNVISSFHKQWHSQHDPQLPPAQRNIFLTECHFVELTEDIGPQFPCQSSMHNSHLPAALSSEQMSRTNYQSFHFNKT
# PK1 (h) = target: T12, PK1 (h) (Homo sapiens, UniProt Q8TCW9)
# T12 construct: gene PROKR1
# T12 sequence (Q8TCW9 whole entry): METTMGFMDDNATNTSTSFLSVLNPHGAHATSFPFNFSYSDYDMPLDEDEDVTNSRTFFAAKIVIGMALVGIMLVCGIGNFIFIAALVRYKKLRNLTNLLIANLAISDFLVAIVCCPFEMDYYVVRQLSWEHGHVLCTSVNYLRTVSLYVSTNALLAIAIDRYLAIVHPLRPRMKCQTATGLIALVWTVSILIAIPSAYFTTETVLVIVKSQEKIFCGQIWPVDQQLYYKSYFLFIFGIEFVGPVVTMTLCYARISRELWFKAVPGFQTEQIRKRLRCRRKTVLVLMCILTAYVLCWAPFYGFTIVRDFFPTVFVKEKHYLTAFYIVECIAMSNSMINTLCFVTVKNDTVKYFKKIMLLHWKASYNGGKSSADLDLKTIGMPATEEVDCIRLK
# S1P2 (h) = target: T13, S1P2 (h) (Homo sapiens, UniProt O95136)
# T13 construct: gene S1PR2
# NMU1 (h) = target: T14, NMU1 (h) (Homo sapiens, UniProt Q9HB89)
# T14 construct: gene NMUR1
# NTS2 (NT2) (h) = target: T15, NTS2 (NT2) (h) (Homo sapiens, UniProt O95665)
# T15 construct: gene NTSR2
# T15 sequence (O95665 whole entry): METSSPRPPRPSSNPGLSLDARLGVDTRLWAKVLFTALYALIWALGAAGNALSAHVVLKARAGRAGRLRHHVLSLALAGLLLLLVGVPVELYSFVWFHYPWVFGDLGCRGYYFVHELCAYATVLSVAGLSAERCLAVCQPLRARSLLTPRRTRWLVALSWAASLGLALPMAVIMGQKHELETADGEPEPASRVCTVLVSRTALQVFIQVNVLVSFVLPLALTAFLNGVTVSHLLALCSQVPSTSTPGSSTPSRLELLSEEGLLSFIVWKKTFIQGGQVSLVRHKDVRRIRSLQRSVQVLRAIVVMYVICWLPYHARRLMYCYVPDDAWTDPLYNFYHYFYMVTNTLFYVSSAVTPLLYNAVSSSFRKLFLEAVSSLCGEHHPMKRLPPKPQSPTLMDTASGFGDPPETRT
# MCH2 (h) = target: T16, MCH2 (h) (Homo sapiens, UniProt Q969V1)
# T16 construct: gene MCHR2
# M1 (h) = target: T17, M1 (h) (Homo sapiens, UniProt P11229)
# T17 construct: gene CHRM1
# M3 (h) = target: T18, M3 (h) (Homo sapiens, UniProt P20309)
# T18 construct: gene CHRM3
# PAF (h) = target: T19, PAF (h) (Homo sapiens, UniProt P25105)
# T19 construct: gene PTAFR
# S1P1 (h) = target: T20, S1P1 (h) (Homo sapiens, UniProt P21453)
# T20 construct: gene S1PR1
# DP1 (h) = target: T21, DP1 (h) (Homo sapiens, UniProt Q13258)
# T21 construct: gene PTGDR
# T21 sequence (Q13258 whole entry): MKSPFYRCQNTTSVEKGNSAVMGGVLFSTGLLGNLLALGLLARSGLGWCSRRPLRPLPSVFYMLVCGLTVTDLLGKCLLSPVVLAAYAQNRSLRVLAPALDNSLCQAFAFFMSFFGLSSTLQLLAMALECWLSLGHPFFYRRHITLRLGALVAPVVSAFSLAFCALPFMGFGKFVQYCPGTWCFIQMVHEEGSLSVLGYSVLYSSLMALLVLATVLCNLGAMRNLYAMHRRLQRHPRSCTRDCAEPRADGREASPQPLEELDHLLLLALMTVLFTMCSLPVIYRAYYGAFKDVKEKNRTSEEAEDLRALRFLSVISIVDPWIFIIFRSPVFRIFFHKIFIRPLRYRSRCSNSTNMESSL
# EP4 (h) = target: T22, EP4 (h) (Homo sapiens, UniProt P35408)
# T22 construct: gene PTGER4
# MRGX1 / MRGPRX1 (h) = MRGX1 / MRGPRX1 (h) (Homo sapiens, UniProt Q96LB2)
# MRGX1 / MRGPRX1 (h), sequence (Q96LB2 whole entry): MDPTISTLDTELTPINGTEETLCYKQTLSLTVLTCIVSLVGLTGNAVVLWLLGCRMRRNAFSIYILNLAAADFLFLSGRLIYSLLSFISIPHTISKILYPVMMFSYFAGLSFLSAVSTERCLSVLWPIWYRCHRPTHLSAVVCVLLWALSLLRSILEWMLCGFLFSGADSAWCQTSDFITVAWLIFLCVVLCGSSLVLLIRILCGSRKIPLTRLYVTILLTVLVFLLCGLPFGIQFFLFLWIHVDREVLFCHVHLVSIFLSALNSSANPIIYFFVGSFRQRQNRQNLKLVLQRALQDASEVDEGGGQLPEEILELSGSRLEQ
# OX2 (h) = target: T23, OX2 (h) (Homo sapiens, UniProt O43614)
# T23 construct: gene HCRTR2
# T23 sequence (O43614 whole entry): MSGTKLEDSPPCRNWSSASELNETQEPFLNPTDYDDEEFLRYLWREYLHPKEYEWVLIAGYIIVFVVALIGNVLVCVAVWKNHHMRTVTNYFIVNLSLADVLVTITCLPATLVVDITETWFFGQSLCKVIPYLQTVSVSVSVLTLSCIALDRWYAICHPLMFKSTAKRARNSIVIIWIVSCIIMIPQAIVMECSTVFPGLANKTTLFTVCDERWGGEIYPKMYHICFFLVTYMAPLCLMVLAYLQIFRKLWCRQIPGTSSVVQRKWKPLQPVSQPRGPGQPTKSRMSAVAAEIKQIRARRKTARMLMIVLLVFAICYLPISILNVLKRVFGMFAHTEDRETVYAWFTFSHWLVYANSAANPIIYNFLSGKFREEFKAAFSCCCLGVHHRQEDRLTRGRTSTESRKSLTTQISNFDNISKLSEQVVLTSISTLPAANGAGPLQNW
# PAR1 (h) = target: T24, PAR1 (h) (Homo sapiens, UniProt P25116)
# T24 construct: gene F2R
# T24 sequence (P25116 whole entry): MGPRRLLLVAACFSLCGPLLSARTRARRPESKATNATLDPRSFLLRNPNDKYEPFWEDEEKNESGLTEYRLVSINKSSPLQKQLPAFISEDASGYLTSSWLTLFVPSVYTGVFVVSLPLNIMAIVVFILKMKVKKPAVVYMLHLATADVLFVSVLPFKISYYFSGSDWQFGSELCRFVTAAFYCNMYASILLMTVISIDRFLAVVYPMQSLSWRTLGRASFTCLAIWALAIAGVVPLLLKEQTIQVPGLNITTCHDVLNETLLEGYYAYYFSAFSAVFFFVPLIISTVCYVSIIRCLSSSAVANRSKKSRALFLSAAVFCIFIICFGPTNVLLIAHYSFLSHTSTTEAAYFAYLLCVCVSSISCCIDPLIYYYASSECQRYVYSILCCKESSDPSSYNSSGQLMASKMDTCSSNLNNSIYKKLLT
smiles,measurement,setting,value
"[O-][S@@+](Cc1cncs1)C(c1ccccc1)c1ccccc1 [S-CE-123, (S)-5-((Benzhydrylsulfinyl)Methyl)Thiazole]",inhibition at 2.8 µM,PTH1 (h),-10.6%
same,inhibition at 2.8 µM,LPA1(h),4.4%
same,inhibition at 2.8 µM,MC5 (h),-8.9%
same,inhibition at 2.8 µM,S1P3 (h),12.2%
same,inhibition at 2.8 µM,PAR2 (h),-19.4%
same,inhibition at 2.8 µM,IP (PGI2) (h),16.3%
same,inhibition at 2.8 µM,S1P5 (h),3.7%
same,inhibition at 2.8 µM,M4 (h),-8.5%
same,inhibition at 2.8 µM,NK1 (h),-5.3%
same,inhibition at 2.8 µM,EP1 (h),-11.9%
same,inhibition at 2.8 µM,NMU2 (h),-17.7%
same,inhibition at 2.8 µM,PK1 (h),2.5%
same,inhibition at 2.8 µM,S1P2 (h),-5.2%
same,inhibition at 2.8 µM,NMU1 (h),-21.3%
same,inhibition at 2.8 µM,NTS2 (NT2) (h),22.9%
same,inhibition at 2.8 µM,MCH2 (h),3.1%
same,inhibition at 2.8 µM,M1 (h),2.6%
same,inhibition at 2.8 µM,M3 (h),0.8%
same,inhibition at 2.8 µM,PAF (h),-39.1%
same,inhibition at 2.8 µM,S1P1 (h),5.9%
same,inhibition at 2.8 µM,DP1 (h),-2.5%
same,inhibition at 2.8 µM,EP4 (h),-1.5%
same,inhibition at 2.8 µM,MRGX1 / MRGPRX1 (h),4.9%
same,inhibition at 2.8 µM,OX2 (h),4.2%
same,inhibition at 2.8 µM,PAR1 (h),2.1%
